Experimental data taken from patent EP4603105A1, “PHARMACEUTICAL COMPOSITION CONTAINING CYCLIC COMPOUND HAVING SELECTIVE KRAS INHIBITORY EFFECT AGAINST HRAS AND NRAS” (CHUGAI SEIYAKU KABUSHIKI KAISHA, priority 2022, dated 2024).

How the values were obtained:
[1] = molecular target: GDP-bound KRAS wild-type protein (Homo sapiens, UniProt P01116); assay: Binding to KRAS by surface plasmon resonance (SPR), dissociation constant KD; conditions: Single Cycle Kinetics
In short: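 Biotinylated GDP-bound RAS was captured at about 100–300 RU. Running buffer: HBS pH 7.4, 10 mM MgCl2, 10 µM GDP, 1 mM DTT, 0.01% Tween 20, 4% DMSO.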

[2] = molecular target: GDP-bound NRAS wild-type protein (Homo sapiens, UniProt P01111); assay: Binding to NRAS by surface plasmon resonance (SPR), KD and KD ratio to KRAS; conditions: ratio of KD for GDP-bound NRAS wild-type protein to KD for KRAS
Chain of GDP-bound NRAS wild-type protein (P01111 whole entry): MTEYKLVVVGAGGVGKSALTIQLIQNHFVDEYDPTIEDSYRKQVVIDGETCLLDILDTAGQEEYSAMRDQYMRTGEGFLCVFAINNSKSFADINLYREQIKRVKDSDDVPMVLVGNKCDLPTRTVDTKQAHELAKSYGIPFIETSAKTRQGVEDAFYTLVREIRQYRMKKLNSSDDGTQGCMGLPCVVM
In short: (§1)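 Each cycle, GDP-bound biotin-Avi RAS was captured (~100–300 RU), compound concentrations were injected low to high for 75 s each at 100 µL/min, then the chip was regenerated. Buffer: HBS pH 7.4, 10 mM MgCl2, 10 µM GDP, 1 mM DTT, 4% DMSO; 30°C. KD from a 1:1 binding model.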

HRAS wild-type protein = HRAS wild-type protein (Homo sapiens, UniProt P01112); assay: Binding to HRAS by surface plasmon resonance (SPR), KD and KD ratio to KRAS; conditions: ratio of KD for HRAS wild-type protein to KD for KRAS
Chain of HRAS wild-type protein (P01112 whole entry): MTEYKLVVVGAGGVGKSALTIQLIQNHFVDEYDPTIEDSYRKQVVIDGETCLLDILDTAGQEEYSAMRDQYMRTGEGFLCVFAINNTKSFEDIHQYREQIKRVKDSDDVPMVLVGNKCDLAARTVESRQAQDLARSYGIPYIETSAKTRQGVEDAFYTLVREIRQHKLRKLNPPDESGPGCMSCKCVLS
In short: as §1

[3] = test system: human lung cancer strain NCI-H441; assay: NCI-H441 cell proliferation inhibitory activity (CellTiter-Glo, 4 days); format: cell-based; conditions: NCI-H441 cells, 4 days, read-out: NCl-H441 IC50
In short: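 Signal came from […] measured per well once the reagent was added. Beforehand, cells were cultured at 37°C and 5% carbon dioxide on a compound series serially diluted in dimethyl sulfoxide.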

Chain of GDP-bound KRAS wild-type protein (P01116 1-188 isoform P01116-2): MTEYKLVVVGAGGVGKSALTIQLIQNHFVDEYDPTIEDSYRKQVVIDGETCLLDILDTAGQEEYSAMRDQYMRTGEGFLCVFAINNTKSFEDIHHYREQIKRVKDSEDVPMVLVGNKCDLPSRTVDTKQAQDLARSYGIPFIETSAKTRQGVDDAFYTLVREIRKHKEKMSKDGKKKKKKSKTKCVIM

| Structure (SMILES) | Kd [1] [nM] | IC50 [3] [nM] | NRAS /KRAS [2] | HRAS /KRAS (HRAS wild-type protein) |
| --- | --- | --- | --- | --- |
| CCCO[C@@H]1C[C@H]2C(=O)NC3(CC(C)(C)C3)C(=O)N(C)[C@@H](C3CCCC3)C(=O)N(C)[C@H](C(=O)N(C)CC)CC(=O)N(C)[C@@H](COCC)C(=O)N[C@@H]([C@@H](C)CC)C(=O)N(C3CC3)CC(=O)N(C)[C@H]3C/C=C\CCN(C3=O)[C@@H](Cc3ccc(C)cc3)C(=O)N(C)CC(=O)N[C@@H](CCc3ccc(C(F)(F)F)c(OC)c3)C(=O)N2C1 [PP3466] | 0.97 | 39.8 | A (a compound having 10 or more and less than 20 is denoted as A) | B (a compound having 3 or more and less than 10 is denoted as B) |
| CCCO[C@@H]1C[C@H]2C(=O)NC3(CC(C)(C)C3)C(=O)N(C)[C@@H](C3CCCC3)C(=O)N(C)[C@H](C(=O)N(C)CC)CC(=O)N(C)[C@@H](COCC)C(=O)N[C@@H]([C@@H](C)CC)C(=O)N3CCC[C@H]3C(=O)N(C)[C@H]3C/C=C\CCN(C3=O)[C@@H](Cc3ccc(C)cc3)C(=O)N(C)CC(=O)N[C@@H](CCc3ccc(C(F)(F)F)c(OC)c3)C(=O)N2C1 [PP3467] | 1.3 | 60.2 | A (a compound having 10 or more and less than 20 is denoted as A) | A (a compound having 10 or more and less than 20 is denoted as A) |
| CCCO[C@@H]1C[C@H]2C(=O)NC3(CC(C)(C)C3)C(=O)N(C)[C@@H](C3CCCC3)C(=O)N(C)[C@H](C(=O)N(C)CC)CC(=O)N(C)[C@@H](COCC)C(=O)N[C@@H]([C@@H](C)CC)C(=O)N(C3CC3)CC(=O)N(C)[C@H]3C/C=C\CCN(C3=O)[C@@H](Cc3ccc(C(F)(F)F)cc3)C(=O)N(C)CC(=O)N[C@@H](CCc3cc(F)c(C(F)(F)F)c(F)c3)C(=O)N2C1 [PP3470] | 0.61 | 12.2 | A (a compound having 10 or more and less than 20 is denoted as A) | A (a compound having 10 or more and less than 20 is denoted as A) |
| CCCO[C@@H]1C[C@H]2C(=O)NC3(CC(C)(C)C3)C(=O)N(C)[C@@H](C3CCCC3)C(=O)N(C)[C@H](C(=O)N(C)CC)CC(=O)N(C)[C@@H](COCC)C(=O)N[C@@H]([C@@H](C)CC)C(=O)N3CCC[C@H]3C(=O)N(C)[C@H]3C/C=C\CCN(C3=O)[C@@H](Cc3ccc(C(F)(F)F)cc3)C(=O)N(C)CC(=O)N[C@@H](CCc3cc(F)c(C(F)(F)F)c(F)c3)C(=O)N2C1 [PP3471] | 1.1 | 48.7 | A (a compound having 10 or more and less than 20 is denoted as A) | A (a compound having 10 or more and less than 20 is denoted as A) |

Now from value to molecule, other results behind:

| Kd [1] [nM] | IC50 [3] [nM] | Structure (SMILES) | NRAS /KRAS [2] | HRAS /KRAS (HRAS wild-type protein) |
| --- | --- | --- | --- | --- |
| 3.4 | 137 | CCCO[C@@H]1C[C@H]2C(=O)NC3(CC(C)(C)C3)C(=O)N(C)[C@@H](C3CCCC3)C(=O)N(C)[C@H](C(=O)N(C)CC)CC(=O)N(C)[C@@H](COCC)C(=O)N[C@@H]([C@@H](C)CC)C(=O)N3C[C@@H](C)C[C@H]3C(=O)N(C)[C@H]3C/C=C\CCN(C3=O)[C@@H](Cc3ccc(C)cc3)C(=O)N(C)CC(=O)N[C@@H](CCc3ccc(C(F)(F)F)c(OC)c3)C(=O)N2C1 [PP3468] | B (a compound having 3 or more and less than 10 is denoted as B) | A (a compound having 10 or more and less than 20 is denoted as A) |
| 0.56 | 24.2 | CCCO[C@@H]1C[C@H]2C(=O)NC3(CC(C)(C)C3)C(=O)N(C)[C@@H](C3CCCC3)C(=O)N(C)[C@H](C(=O)N(C)CC)CC(=O)N(C)[C@@H](COCC)C(=O)N[C@@H]([C@@H](C)CC)C(=O)N3C[C@@H](F)C[C@H]3C(=O)N(C)[C@H]3C/C=C\CCN(C3=O)[C@@H](Cc3ccc(C)cc3)C(=O)N(C)CC(=O)N[C@@H](CCc3ccc(C(F)(F)F)c(OC)c3)C(=O)N2C1 [PP3469] | A (a compound having 10 or more and less than 20 is denoted as A) | A (a compound having 10 or more and less than 20 is denoted as A) |
